23 molecules from patent US11453683B1, “KRas G12D inhibitors” (Mirati Therapeutics, Inc., priority 2019, dated 2022) can be followed below.

For this experiment, the system named is KRas G12D-mediated phosphorylation of ERK. Kind of experiment: Inhibition of KRas G12D-mediated phosphorylation of ERK in AGS cells. Type of experiment: cell-based. To be noted: Homo sapiens; AGS cells expressing G12D, 3 hours, phospho-ERK normalized to GAPDH. The gist of the method:
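In-cell Western: p-ERK Thr202/Tyr204 signal over GAPDH, as % of DMSO control, with IC50 from a 4-parameter curve. AGS cells seeded 40,000/well for 12-14 h, exposed to compound 3 h at 0.5% DMSO final, then formaldehyde-fixed and methanol-permeabilized.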

SMILES strings stand for the structures.

In turn, `CC(C)c1ccc(O)cc1-c1ncc2c(N3C[C@H]4CC[C@@H](C3)N4)nc(OCC34CCCN3CCC4)nc2c1F` [Example 403, 3-(4-((1R,5S)-3,8-diazabicyclo[3.2.1]octan-3-yl)-8-fluoro-2-((tetrahydro-1H-pyrrolizin-7a(5H)-yl)methoxy)pyrido[4,3-d]pyrimidin-7-yl)-4-isopropylphenol] came in with an IC50 of 2.88 µM.
With `O=C(O[C@@H]1CN2CCC[C@]2(COc2nc(N3C[C@H]4CC[C@@H](C3)N4)c3cnc(-c4cccc5cccc(Cl)c45)c(F)c3n2)C1)N1CCOCC1` [Example 436, (2S,7aR)-7a-(((4-((1R,5S)-3,8-diazabicyclo[3.2.1]octan-3-yl)-7-(8-chloronaphthalen-1-yl)-8-fluoropyrido[4,3-d]pyrimidin-2-yl)oxy)methyl)hexahydro-1H-pyrrolizin-2-yl morpholine-4-carboxylate] the figure was 3.99 µM.
For `Oc1cc(-c2ncc3c(N4C[C@H]5CC[C@@H](C4)N5)nc(OC[C@@]45CCCN4C[C@H](F)C5)nc3c2F)c2c(F)c(F)ccc2c1` [Example 246, 4-(4-((1R,5S)-3,8-diazabicyclo[3.2.1]octan-3-yl)-8-fluoro-2-(((2R,7aS)-2-fluorohexahydro-1H-pyrrolizin-7a-yl)methoxy)pyrido[4,3-d]pyrimidin-7-yl)-5,6-difluoronaphthalen-2-ol] the value was 0.001 µM.
For `COCCO[C@@H]1C[C@@H](COc2nc(N3C[C@H]4CC[C@@H](C3)N4)c3cnc(-c4cccc5cccc(Cl)c45)c(F)c3n2)N(C)C1` [Example 202, 4-((1R,5S)-3,8-diazabicyclo[3.2.1]octan-3-yl)-7-(8-chloronaphthalen-1-yl)-8-fluoro-2-(((2S,4R)-4-(2-methoxyethoxy)-1-methylpyrrolidin-2-yl)methoxy)pyrido[4,3-d]pyrimidine] the value was 10.2 µM.
With `CCc1c(F)ccc2cccc(-c3ncc4c(N5C[C@H]6CC[C@@H](C5)N6)nc(OCC56CCCN5CCC6)nc4c3F)c12` [Example 426, 4-((1R,5S)-3,8-diazabicyclo[3.2.1]octan-3-yl)-7-(8-ethyl-7-fluoronaphthalen-1-yl)-8-fluoro-2-((hexahydro-1H-pyrrolizin-7a-yl)methoxy)pyrido[4,3-d]pyrimidine], half-maximal inhibition (IC50) required 0.228 µM.
With `Fc1cccc(-c2ncc3c(N4C[C@H]5CC[C@@H](C4)N5)nc(OCC45CCCN4CCC5)nc3c2F)c1C1CC1` [Example 304, 4-((1R,5S)-3,8-diazabicyclo[3.2.1]octan-3-yl)-7-(2-cyclopropyl-3-fluorophenyl)-8-fluoro-2-((hexahydro-1H-pyrrolizin-7a-yl)methoxy)pyrido[4,3-d]pyrimidine] the figure was 1.42 µM.
For `OC[C@@H]1CCN1c1nc(N2C[C@H]3CC[C@@H](C2)N3)c2cnc(-c3cc(O)cc4ccccc34)c(F)c2n1` [Example 121, 4-(4-((1R,5S)-3,8-diazabicyclo[3.2.1]octan-3-yl)-8-fluoro-2-((S)-2-(hydroxymethyl)azetidin-1-yl)pyrido[4,3-d]pyrimidin-7-yl)naphthalen-2-ol 2,2,2-trifluoroacetate] the value was 4.08 µM; for `CN(C)C1CN(c2nc(N3C[C@H]4CC[C@@H](C3)N4)c3cnc(-c4cccc5cccc(Cl)c45)c(F)c3n2)C1` [Example 122, 1-(4-((1R,5S)-3,8-diazabicyclo[3.2.1]octan-3-yl)-7-(8-chloronaphthalen-1-yl)-8-fluoropyrido[4,3-d]pyrimidin-2-yl)-N,N-dimethylazetidin-3-amine], more than 16.7 µM; for `Oc1cc(Cl)c(C2CC2)c(-c2ncc3c(N4C[C@H]5CC[C@@H](C4)N5)nc(OC[C@@]45CCCN4C[C@H](F)C5)nc3c2F)c1` [Example 283, 3-(4-((1R,5S)-3,8-diazabicyclo[3.2.1]octan-3-yl)-8-fluoro-2-(((2R,7aS)-2-fluorohexahydro-1H-pyrrolizin-7a-yl)methoxy)pyrido[4,3-d]pyrimidin-7-yl)-5-chloro-4-cyclopropylphenol], 0.007 µM.
With `COC(=O)NC[C@H]1CC[C@@]2(COc3nc(N4CC5CCC(C4)N5)c4cnc(-c5cccc6cccc(Cl)c56)c(F)c4n3)CCCN12` [Example 411, methyl ((7a-(((4-(3,8-diazabicyclo[3.2.1]octan-3-yl)-7-(8-chloronaphthalen-1-yl)-8-fluoropyrido[4,3-d]pyrimidin-2-yl)oxy)methyl)hexahydro-1H-pyrrolizin-3-yl)methyl)carbamate] the figure was 0.745 µM.
Molecule `Nc1cccc(CCOc2nc(N3C[C@H]4CC[C@@H](C3)N4)c3cnc(-c4cc(O)cc5ccccc45)c(F)c3n2)n1` [Example 139, 4-(2-(2-(6-aminopyridin-2-yl)ethoxy)-4-((1R,5S)-3,8-diazabicyclo[3.2.1]octan-3-yl)-8-fluoropyrido[4,3-d]pyrimidin-7-yl)naphthalen-2-ol] displayed an IC50 of 5.25 µM.
With `Fc1c(-c2cccc3cccc(Cl)c23)ncc2c(N3C[C@H]4CC[C@@H](C3)N4)nc(OC[C@]34CCCN3[C@@H](Cn3cccn3)CC4)nc12` [Example 418, 2-((3-((1H-pyrazol-1-yl)methyl)tetrahydro-1H-pyrrolizin-7a(5H)-yl)methoxy)-4-(3,8-diazabicyclo[3.2.1]octan-3-yl)-7-(8-chloronaphthalen-1-yl)-8-fluoropyrido[4,3-d]pyrimidine bis(2,2,2-trifluoroacetate)] the figure was 2.74 µM.
With `Fc1c(-c2cccc3c2CCC3)ncc2c(N3CC4CCC(C3)N4)nc(OC[C@@]34CCCN3C[C@H](F)C4)nc12` [Example 428] the figure was 6.96 µM; with `CCO[C@@H]1C[C@@H](COc2nc(N3C[C@H]4CC[C@@H](C3)N4)c3cnc(-c4cccc5cccc(Cl)c45)c(F)c3n2)N(C)C1` [Example 43, 4-((1R,5S)-3,8-diazabicyclo[3.2.1]octan-3-yl)-7-(8-chloronaphthalen-1-yl)-2-(((2S,4R)-4-ethoxy-1-methylpyrrolidin-2-yl)methoxy)-8-fluoropyrido[4,3-d]pyrimidine], 6.2 µM; with `Fc1c(-c2cccc3cccc(Cl)c23)ncc2c(N3C[C@H]4CC[C@@H](C3)N4)nc(OCC34CCCN3CC(F)(F)C4)nc12` (stereo partly drawn) [Example 93, 4-((1R,5S)-3,8-diazabicyclo[3.2.1]octan-3-yl)-7-(8-chloronaphthalen-1-yl)-2-((2,2-difluorotetrahydro-1H-pyrrolizin-7a(5H)-yl)methoxy)-8-fluoropyrido[4,3-d]pyrimidine bis(2,2,2-trifluoroacetate)], more than 16.7 µM.
With `CN(C)C(=O)NC[C@H]1CC[C@@]2(COc3nc(N4CC5CCC(C4)N5)c4cnc(-c5cccc6cccc(Cl)c56)c(F)c4n3)CCCN12` [Example 412, 3-((7a-(((4-(3,8-diazabicyclo[3.2.1]octan-3-yl)-7-(8-chloronaphthalen-1-yl)-8-fluoropyrido[4,3-d]pyrimidin-2-yl)oxy)methyl)hexahydro-1H-pyrrolizin-3-yl)methyl)-1,1-dimethylurea] the figure was 4.78 µM; with `CN(C)C1(C)CN(c2nc(N3C[C@H]4CC[C@@H](C3)N4)c3cnc(-c4cccc5cccc(Cl)c45)c(F)c3n2)C1` [Example 127, 1-(4-((1R,5S)-3,8-diazabicyclo[3.2.1]octan-3-yl)-7-(8-chloronaphthalen-1-yl)-8-fluoropyrido[4,3-d]pyrimidin-2-yl)-N,N,3-trimethylazetidin-3-amine], more than 16.7 µM.
As to `CN1C[C@H](C(F)(F)F)C[C@H]1COc1nc(N2C[C@H]3CC[C@@H](C2)N3)c2cnc(-c3cc(O)cc4ccccc34)c(F)c2n1` [Example 28, 4-(4-((1R,5S)-3,8-diazabicyclo[3.2.1]octan-3-yl)-8-fluoro-2-(((2S,4R)-1-methyl-4-(trifluoromethyl)pyrrolidin-2-yl)methoxy)pyrido[4,3-d]pyrimidin-7-yl)naphthalen-2-ol], the half-inhibitory concentration (IC50) stood at 11.7 µM.
For `CCc1cccc2cccc(-c3ncc4c(N5C[C@H]6CC[C@@H](C5)N6)nc(OCC56CCCN5CCC6)nc4c3F)c12` [Example 187, 4-((1R,5S)-3,8-diazabicyclo[3.2.1]octan-3-yl)-7-(8-ethylnaphthalen-1-yl)-8-fluoro-2-((tetrahydro-1H-pyrrolizin-7a(5H)-yl)methoxy)pyrido[4,3-d]pyrimidine] the value was 0.45 µM; for `Cc1cc2[nH]ncc2c(-c2ncc3c(N4C[C@H]5CC[C@@H](C4)N5)nc(OCC45CCCN4CCC5)nc3c2F)c1C` [Example 249, 4-((1R,5S)-3,8-diazabicyclo[3.2.1]octan-3-yl)-7-(5,6-dimethyl-1H-indazol-4-yl)-8-fluoro-2-((hexahydro-1H-pyrrolizin-7a-yl)methoxy)pyrido[4,3-d]pyrimidine], 7.71 µM; for `CN1C[C@H](NC(=O)c2cccc(S(=O)(=O)F)c2)C[C@H]1COc1nc(N2C[C@H]3CC[C@@H](C2)N3)c2cnc(-c3cccc4cccc(Cl)c34)c(F)c2n1` [Example 211, 3-(((3R,5S)-5-(((4-((1R,5S)-3,8-diazabicyclo[3.2.1]octan-3-yl)-7-(8-chloronaphthalen-1-yl)-8-fluoropyrido[4,3-d]pyrimidin-2-yl)oxy)methyl)-1-methylpyrrolidin-3-yl)carbamoyl)benzenesulfonyl fluoride tris(2,2,2-trifluoroacetate)], 13.5 µM.
The molecule `Oc1ccc(OC(F)(F)F)c(-c2ncc3c(N4CC5CCC(C4)N5)nc(OCC45CCCN4C[C@H](F)C5)nc3c2F)c1` (mixture of isomers) [Example 340, 3-(4-((1R,5S)-3,8-diazabicyclo[3.2.1]octan-3-yl)-8-fluoro-2-((2-fluorotetrahydro-1H-pyrrolizin-7a(5H)-yl)methoxy)pyrido[4,3-d]pyrimidin-7-yl)-4-(trifluoromethoxy)phenol] displayed an IC50 of 0.0515 µM.
As for `CNc1nc(N2CC3CCC(C2)N3)c2cnc(-c3cc(O)cc4ccccc34)c(F)c2n1` [Example 183, 4-[4-(3,8-diazabicyclo[3.2.1]octan-3-yl)-8-fluoro-2-(methylamino)pyrido[4,3-d]pyrimidin-7-yl]naphthalen-2-ol], the half-inhibitory concentration (IC50) was determined as 5.25 µM.

A word on the IC50: it is the concentration that inhibits the measured activity by half. Low readings indicate greater potency, high ones weaker potency.
